Results: paper PMC10186366 (ACS Pharmacology & Translational Science, 2023)
pIC50, pKi: −log10 of the molar value. Where two headings read alike, the source gives them in different places.

Columns and labels:
[1] = tested on: R2 (MTXRIIOuaR2-4) RFC-, PCFT-, and FRα-null CHO cells; assay: Cell proliferation assay, transporter-null R2 CHO subline; format: cell-based, Chinese hamster; settings: Cricetulus griseus, transporter-null control cells, 96 h, up to 1000 nM, mean (standard error)
Text: (§1) We used a unique panel of engineered Chinese hamster ovary (CHO) sublines derived from a transporter-null MTXRIIOua^R2-4 CHO subline (R2) and designed to individually express human FRα (RT16), FRβ (D4), RFC (PC43-10), or PCFT (R2/PCFT).[39]−[42] As the CHO sublines are isogenic and differ only in the presence or absence of the human folate transporters, differences in the extent of inhibition of cell proliferation between the cell lines upon treatment with the various compounds provide a robust readout of transport specificities.[25],[26],[29],[30],[43]
(§2) The CHO sublines were treated for 96 h with a range of drug concentrations up to 1000 nM; cell viabilities were measured with a fluorescence assay.[26] […] As a control, we used transporter-null R2 cells.[42] To extend studies to human tumor cells, we also performed experiments in RFC-, PCFT-, and FRα-expressing KB tumor cells.[44] To confirm the contribution of FR-mediated uptake to antitumor activity, for KB cells, we added 200 nM folic acid, which inhibits FR uptake by direct competition without effects on either RFC or PCFT.[25],[26],[28]−[30],[43]
(§3) The MTXRIIOua^R2-4 RFC-, PCFT-, and FRα-null Chinese hamster ovary (CHO) cell line (R2) was a gift from Dr. Wayne Flintoff (University of Western Ontario).[40],[42] Isogenic CHO cell lines were subsequently derived from R2 cells by transfection with RFC, PCFT, or FRα cDNAs to generate PC43-10 (expresses only human RFC), R2/PCFT4 (expresses only human PCFT), RT16 (expresses only human FRα), and D4 (expresses only human FRβ).[25],[26],[39]
(§4) The CHO sublines were cultured in α-minimal essential medium (α-MEM) supplemented with 100 U/mL penicillin/100 μg/mL streptomycin, 2 mM L-glutamine, and 10% bovine calf serum (Sigma-Aldrich). For the PC43-10, R2/PCFT4, RT16, and D4 sublines, 1.5 mg/mL G418 was also added. Seventy-two hours prior to in vitro proliferation assays (below), RT16 and D4 CHO cells were grown in folate-free RPMI with dialyzed fetal bovine serum (DFBS) (Invitrogen) supplemented with 100 U/mL penicillin/[…] streptomycin and 2 mM L-glutamine. FRα-expressing KB nasopharyngeal carcinoma cells were acquired from the American Type Culture Collection (Manassas, VA); cells were grown in complete folate-free RPMI 1640 supplemented with 10% fetal bovine serum, 100 U/mL penicillin/100 μg/mL streptomycin, and 2 mM L-glutamine. Cell lines were authenticated by STR analysis (Genetica DNA Laboratories, Burlington, NC) and tested for Mycoplasma by PCR (Venor GeM Mycoplasma Detection Kit, Sigma). Frozen stocks were generated from authenticated Mycoplasma-free cultures.
(§5) Cell proliferation assays used CHO and KB cells cultured in folate-free-RPMI 1640 media with 10% DFBS, 2 mM L-glutamine, and 100 U/mL penicillin/100 μg/mL streptomycin supplemented with 2 nM (KB, RT16, D4) or 25 nM (R2, PC43-10, R2/PCFT4) leucovorin.[25],[26],[30] Parallel incubations with 200 nM folic acid were performed in viability assays to confirm FR-mediated drug uptake. Cells were plated in 96-well dishes at 2500–5000 cells/well in 200 μL media and treated with a range of C1 inhibitors spanning 0 to 1 μM. Cells were treated at 37 ° C with 5% CO2, and numbers were assayed after 96 h using CellTiter-blue (Promega, Madison, WI) and a fluorescence plate reader.[25],[26]

[2] = tested on: RT16 CHO cells (expresses only human FRα); assay: Cell proliferation assay, RT16 CHO subline; format: cell-based, Chinese hamster
Text: as §1, §2, §3, §4, §5

[3] = tested on: D4 CHO cells (expresses only human FRβ); assay: Cell proliferation assay, D4 CHO subline; format: cell-based, Chinese hamster; settings: 96 h, 2 nM leucovorin, mean (standard error)
Text: as §1, §2, §3, §4, §5

[4] = tested on: R2/PCFT4 CHO cells (expresses only human PCFT); assay: Cell proliferation assay, R2/PCFT4 CHO subline; format: cell-based, Chinese hamster; settings: 96 h, 25 nM leucovorin, mean (standard error)
Text: as §1, §2, §3, §4, §5

human GARFTase = target: T1, human GARFTase (Homo sapiens, UniProt P22102); assay: In vitro GARFTase enzyme assay (THF formation from 10-CHOTHF); format: biochemical
T1 construct: GARFTase (formyltransferase domain; residues 808–1010); made in house; host or cells: E. coli Rosetta (DE3)pLysS
T1 sequence (P22102 808-1010): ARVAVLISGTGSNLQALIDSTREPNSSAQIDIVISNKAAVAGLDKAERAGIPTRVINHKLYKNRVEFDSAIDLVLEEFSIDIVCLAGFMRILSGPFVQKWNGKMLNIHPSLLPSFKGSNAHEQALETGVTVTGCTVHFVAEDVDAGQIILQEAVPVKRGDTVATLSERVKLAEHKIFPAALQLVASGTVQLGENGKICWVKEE
Experimental: We directly tested inhibition potencies by in vitro assays using purified GARFTase and ATIC (AICARFTase) to calculate inhibition dissociation constants (Ki’s) (Table 2).[45]
Isopropyl β-D-1-thiogalactopyranoside (500 μM) was added, and the cells were incubated at 20 °C for 16–18 h. The cultures were pelleted and resuspended in 40 mL of 25 mM Tris–HCl, pH 7.5, 300 mM NaCl, 5 mM β-mercaptoethanol (β-ME), 10 mM CaCl2, 10 mM MgCl2, 40 mg lysozyme, and 8 U DNAse I (Sigma). The cells were lysed by emulsification.
His-GARFTase was purified from the lysate by ÄKTA FPLC (GE Healthcare) with a Ni-NTA column (Qiagen, Valencia, CA).[48] The column was washed with 5 column volumes (CV) of 25 mM Tris–HCl, pH 8, 300 mM NaCl, 10% glycerol, and 5 mM β-ME. His-GARFTase was eluted with a 0 to 75% gradient of 25 mM Tris–HCl, pH 8, 300 mM NaCl, 10% glyercol, 300 mM imidazole, and 5 mM β-ME over 10 CV. Further purification involved size exclusion chromatography on a Superdex 75 16/60 (GE Healthcare) column with 25 mM Tris–HCl, pH 8, 10 mM β-ME, and 300 mM NaCl. Purified His-GARFTase was stored at 90 μM in 20% glycerol at −80 °C.
GARFTase catalytic activity was measured by monitoring THF formation from 10-CHOTHF.[32],[45],[48] […] Initial slopes were graphed against inhibitor concentrations and fit to a three-parameter nonlinear regression to calculate IC50 values for each compound (GraphPad Prism 8.0). […] Inhibition constants (Ki’s) were calculated from the IC50 values using the equation Ki = IC50/([S]/KM + 1) and the Km and substrate concentration for THF.

[5] = Homo sapiens, RT16, 96 h, 2 nM leucovorin, mean (standard error)
[6] = monoglutamyl antifolates, mean (standard error), at least three replicate assays, tested up to 150 μM, read-out: GARFTase Ki
[7] = Homo sapiens, RT16; 96 h, 2 nM leucovorin; mean (standard error)

| pKi (human GARFTase; [6]) | SMILES | pIC50 [1] | pIC50 ([2]; 96 h, 2 nM leucovorin; mean (standard error)) | pIC50 [2, 5] | pIC50 [3] | pIC50 [4] | pIC50 [2, 7] | pKi (human GARFTase) | GARFTase potency of 9 relative to 2 (human GARFTase; ratio of Ki values) | GARFTase potency of 9 relative to 10 (human GARFTase; ratio of Ki values) |
| --- | --- | --- | --- | --- | --- | --- | --- | --- | --- | --- |
| 4.86 | Nc1nc2sc(CCCCc3cnc(C(=O)N[C@@H](CCC(=O)O)C(=O)O)c(F)c3)cc2c(=O)[nH]1 [Compound 5, (5-(4-(2-Amino-4-oxo-3,4-dihydrothieno[2,3-d]pyrimidin-6-yl)butyl)-3-fluoropicolinoyl)-L-glutamic Acid] | < 6.00 |  | 8.91 | 9.60 | 6.46 |  |  |  |  |
| < 3.82 | Nc1nc2sc(CCCCc3ccc(C(=O)N[C@@H](CCC(=O)O)C(=O)O)c(F)c3)cc2c(=O)[nH]1 [Compound 7, (4-(4-(2-Amino-4-oxo-3,4-dihydrothieno[2,3-d]pyrimidin-6-yl)butyl)-2-fluorobenzoyl)-L-glutamic Acid] | < 6.00 |  | 8.64 | 8.94 | < 6.00 |  |  |  |  |
| 5.51 | Nc1nc2sc(CCCc3csc(C(=O)N[C@@H](CCC(=O)O)C(=O)O)c3F)cc2c(=O)[nH]1 [Compound 8, (4-(3-(2-Amino-4-oxo-3,4-dihydrothieno[2,3-d]pyrimidin-6-yl)propyl)-3-fluorothiophene-2-carbonyl)-L-glutamic Acid] | < 6.00 |  | 8.71 | 9.59 | < 6.00 |  |  |  |  |

The next lines start with the molecule.

| SMILES | pKi (human GARFTase; [6]) | pIC50 [1] | pIC50 ([2]; 96 h, 2 nM leucovorin; mean (standard error)) | pIC50 [2, 5] | pIC50 [3] | pIC50 [4] | pIC50 [2, 7] | pKi (human GARFTase) | GARFTase potency of 9 relative to 2 (human GARFTase; ratio of Ki values) | GARFTase potency of 9 relative to 10 (human GARFTase; ratio of Ki values) |
| --- | --- | --- | --- | --- | --- | --- | --- | --- | --- | --- |
| Nc1nc2sc(CCCCc3cccc(C(=O)N[C@@H](CCC(=O)O)C(=O)O)n3)cc2c(=O)[nH]1 [Compound 3, (6-(4-(2-Amino-4-oxo-3,4-dihydrothieno[2,3-d]pyrimidin-6-yl)butyl)picolinoyl)-L-glutamic Acid] | 4.57 | < 6.00 | 7.61 | 7.60 | 7.38 | < 6.00 |  |  |  |  |
| Nc1nc2sc(CCCCc3ccc(C(=O)N[C@@H](CCC(=O)O)C(=O)O)nc3)cc2c(=O)[nH]1 [Compound 4, (5-(4-(2-Amino-4-oxo-3,4-dihydrothieno[2,3-d]pyrimidin-6-yl)butyl)picolinoyl)-L-glutamic Acid] |  | < 6.00 |  |  | 7.22 | 6.50 | 9.03 | < 3.82 |  |  |
| Nc1nc2sc(CCCc3ccc(C(=O)N[C@@H](CCC(=O)O)C(=O)O)c(F)c3)cc2c(=O)[nH]1 [Compound 6, (4-(3-(2-Amino-4-oxo-3,4-dihydrothieno[2,3-d]pyrimidin-6-yl)propyl)-2-fluorobenzoyl)-L-glutamic Acid] | < 3.82 | < 6.00 |  | 8.97 | 9.32 | 6.23 |  |  |  |  |
| Nc1nc2sc(CCCCc3csc(C(=O)N[C@@H](CCC(=O)O)C(=O)O)c3F)cc2c(=O)[nH]1 [Compound 9, (4-(4-(2-Amino-4-oxo-3,4-dihydrothieno[2,3-d]pyrimidin-6-yl)butyl)-3-fluorothiophene-2-carbonyl)-L-glutamic Acid] |  | < 6.00 |  |  | 9.32 | 6.78 | 8.89 | 6.77 | 17 fold | 25 fold |
